The values below come from ChEMBL document CHEMBL3098064, “Sortase A inhibitory metabolites from the roots of Pulsatilla koreana” (Bioorg Med Chem Lett, 2014).

For orientation: IC50 means the concentration that inhibits the measured activity by half.

A short description of the assay: Inhibition of Streptococcus mutans OMZ65 recombinant sortase A delta-40 mutant using Dabcyl-QALPETGEE-Edans as substrate after 1 hr by fluorescence spectrophotometry.

A value given as a limit tells only on which side of the number the result lay.

Consider `O=C(O)/C=C/c1ccc(O)c(O)c1` [CAFFEIC ACID], for which the IC50 worked out at 20.2 µM. In the case of `O=C(/C=C/c1ccc(O)c(O)c1)O[C@H](C(=O)O)[C@@H](OC(=O)/C=C/c1ccc(O)c(O)c1)C(=O)O`, the IC50 came to 60 µM. The value for `COc1cc(/C=C/C(=O)O)ccc1O` [FERULATE] was above 100 µM. As for `COc1cc(C[C@@H]2COC(=O)[C@]2(O)Cc2ccc(O)c(OC)c2)ccc1O`, the IC50 was above 100 µM. Next, `COc1cc([C@H]2Oc3c(OC)cc(CCCO[C@@H]4O[C@H](CO)[C@@H](O)[C@H](O)[C@H]4O)cc3[C@H]2CO)ccc1O`: 37.3 µM; `COc1cc([C@H]2Oc3c(OC)cc(CCCO)cc3[C@H]2CO)ccc1O`: 35.9 µM.

Turning to `O=C(/C=C/c1ccc(O)c(O)c1)O[C@@H](Cc1ccc(O)c(O)c1)C(=O)O`, the half-inhibitory concentration (IC50) was 20.1 µM. Next, Para-Hydroxymercuribenzoic acid: 35.1 µM; `COc1cc([C@H]2Oc3c(OC)cc(CCCO)cc3[C@H]2CO[C@@H]2O[C@H](CO)[C@@H](O)[C@H](O)[C@H]2O)ccc1O`: 82.8 µM; `COc1cc(C[C@@H]2COC(=O)[C@@]2(Cc2ccc(O)c(OC)c2)O[C@@H]2O[C@H](CO)[C@@H](O)[C@H](O)[C@H]2O)ccc1O`: 41.2 µM. The value for `CO[C@@H](Cc1ccc(O)cc1)C(=O)O` was above 100 µM; that for `COc1cc(C[C@H]2COC(=O)[C@@H]2Cc2ccc(O)c(OC)c2)ccc1O` [MATAIRESINOL] was above 100 µM; that for `COc1cc([C@@H]2OC[C@@H]3[C@H]2CO[C@H]3c2ccc(O)c(OC)c2)ccc1O` [(+)-PINORESINOL] was 67.7 µM.
